The values below come from patent publication EP1566447A1, “Glimepiride- and insulin-induced glycosylphosphatidylinositol-specific phospholipase C regulation” (priority 2004, dated 2005).

Entries after “also recorded” stand apart in the source; their conditions may differ.

This experiment relates to rat adipocytes. Briefly: glucose transport assay. The experiment is classed as cell-based. How it is done:
Glucose transport was determined as described in "Müller, G. et al., (1994) J. Cell Biol. 126: 1267-1276" by incubation of 10,000-20,000 washed adipocytes with 2-deoxy-D-[2,6-^3H]glucose at 50 µM final conc. (0.33 µCi/ml) in 50-µl portions for 20 min at 37°C in the absence or presence of 20 µM cytochalasin B.
Table 3: Isolated rat adipocytes were incubated in the presence of methyl-β-cyclodextrin (m-β-CD, 10 mM, 50 min), CBDP (300 µM, electroporation, followed by washing and subsequent incubation for 30 min), PIG41 (10 µM, 15 min), sodium orthovanadate (1 mM, 15 min), trypsin (10 µg/ml, 15 min followed by treatment with 0.5 M NaCl and subsequent washing) and N-ethylmaleimide (1 mM, 5 min followed by addition of DTT). After addition of GPI-2350 (50 µM final conc.) to one half of the adipocyte suspension and further incubation (60 min, 37°C), portions of the cells were assayed for 5'-Nuc activity in the isolated IcDIGs. The increase in 5'-Nuc during the basal incubation was set at 100 arb. units. Other portions of the cells (after 15 min incubation) were assayed for glucose transport which was set at 100 arb. units for the basal incubation. Means ± SD of at least 3 independent cell incubations with activity measurements in triplicate each are given.
Fig. 8: Effect of GPI-2350 on the glimepiride/insulin-induced metabolic activity. Isolated rat adipocytes were treated (5 min, 37°C) without or with GPI-2350 (Panel A, 50 µM; Panel B, increasing conc.; Panel C, 5 µM, 50 µM) and then incubated (15 min, 37°C) in the absence or presence of insulin (Ins, 10 nM) or glimepiride (Gli, 20 µM or increasing conc.) as indicated. The adipocytes were then assayed for glucose transport and isoproterenol-induced lipolysis. The activity is given relative to the absence of GPI-2350 in the control reaction (Panels A, basal) or in the insulin- and glimepiride-stimulated state (Panels B and C, set at 100). Means ± SD of at least 5 independent cell incubations with activity measurements in triplicate each are given.

With `CCCCCCCCCCCCP1(=O)O[C@@H]2[C@H](O)[C@@H](O)[C@H](O)[C@@H](O)[C@@H]2O1` (mixture of isomers) [GPI-2350, myo-inositol-1,2-cyclo-dodecylphosphonic acid], the “effect on stimulation of glucose transport in response to glimepiride” value (50 µM) is reported as “almost complete blockade; also recorded: lower than control values”. Where the note is “Rattus norvegicus, Adipocyte”, this compound returned an IC50 of 2 to 5 µM. Besides, under “Rattus norvegicus, Adipocyte, 50 µM, insulin 10 nM, read-out: reduction of insulin stimulation of glucose transport”, the inhibition at 50 µM is no more than 25%.
